Structures can show the parent of a compound that is named as a salt.
Columns and labels:
Type in all cases: in vivo
[1] = system: human ovarian cancer cell line (A2780); assay: Combined effect in model animal transplanted with human ovarian cancer cell line (A2780); settings: A2780 s.c. in nude mouse, Compound A 10 mg/kg, Compound B 100 mg/kg, oral once daily, average ± standard deviation
Procedure: (§1) The human ovarian cancer cell line A2780 (ATCC) was cultured using a 10% FBS-containing RPMI 1640 medium (SIGMA) in a 5% CO2 incubator under the condition of 37° C. When the cells reached a state of approximately 80% confluency, the cells were collected using trypsin-EDTA. To these cells, a Hanks' Balanced Salt Solution containing 50% Matrigel was added to prepare a suspension at a concentration of 5.0×10^7 cells/mL. The cell suspension thus obtained was subcutaneously transplanted at the lateral side of the body of a nude mouse (CAnN.Cg-Foxn1nu/CrlCrlj, Charles River Laboratories Japan, Inc.) in an amount of 0.1 mL, where each group contained six mice. Compound A (10 mg/kg, once daily, for 10 days) and Compound B (100 mg/kg, once daily, for 10 days) were orally administered, either individually or both in a row.
Setting the initial day of administration at Day 0, the major axis and the minor axis of a tumor developed in each mouse were measured using Digimatic caliper (Mitsutoyo Corporation) thereafter on Day 3, 5, 8, and 10.
(§2) The tumor volume and the relative tumor volume were calculated according to the equations below. TV=major axis (mm)×minor axis^2 (mm^2)/2 RTV=TV on the day of measurement/TV on the initial day of administration

[2] = system: human pancreatic cancer cell line (KP-4); assay: Combined effect in model animal transplanted with human pancreatic cancer cell line (KP-4); settings: KP-4 s.c. in nude mouse, Compound A 10 mg/kg, Compound B 100 mg/kg, oral once daily, average ± standard deviation
Procedure: as §1, with “human pancreatic” for “human ovarian”, “line KP-4 (acquired from National Hospital Organization Kyushu Cancer Center)” for “line A2780 (ATCC)”, “at” for “at a concentration of”, “mice. From 11 days after the transplantation,” for “mice.”, “for 17” for “for 10”
(§3) Setting the initial day of administration at Day 0, the major axis and the minor axis of a tumor developed in each mouse were measured using Digimatic caliper (Mitsutoyo Corporation) thereafter on Day 3, 7, 10, 14, and 17.
as §2

[3] = system: human malignant melanoma cell line (SEKI); assay: Combined effect in model animal transplanted with human malignant melanoma cell line (SEKI); settings: SEKI s.c. in nude mouse, Compound A 10 mg/kg, Compound B 100 mg/kg, oral once daily, average ± standard deviation
Procedure: as §1, with “human malignant melanoma” for “human ovarian cancer”, “line SEKI (JCRB Cell bank)” for “line A2780 (ATCC)”, “FBS-containing RPM” for “FBS-containing RPMI”, “at” for “at a concentration of”, “mice. From 11 days after the transplantation,” for “mice.”, “for 17” for “for 10”
as §3, §2

[4] = system: human gastric cancer cell line (IM95m); assay: Combined effect in model animal transplanted with human gastric cancer cell line (IM95m); settings: IM95m s.c. in nude mouse, Compound A 10 mg/kg, Compound B 100 mg/kg, oral once daily, average ± standard deviation
Procedure: The human gastric cancer cell line IM95m (Health Science Research Resources Bank) was cultured using a DMEM medium (Wako Pure Chemical Industries, Ltd) containing […] glucose, 10% FBS, and 10 μg/mL insulin in a 5% CO2 incubator under the condition of 37° C. When the cells reached a state of approximately 80% confluency, the cells were collected using trypsin-EDTA. To these cells, a Hanks' Balanced Salt Solution containing 50% Matrigel was added to prepare a suspension at 1.0×10^8 cells/mL. The cell suspension thus obtained was subcutaneously transplanted at the lateral side of the body of a nude mouse (CAnN.Cg-Foxn1nu/CrlCrlj, Charles River Laboratories Japan, Inc.) in an amount of 0.1 mL, where each group contained six mice. From 13 days after the transplantation, Compound A (10 mg/kg, once daily, for 21 days) and Compound B (100 mg/kg, once daily, for 21 days) were orally administered continuously, either individually or both in a row.
Setting the initial day of administration at Day 0, the major axis and the minor axis of a tumor developed in each mouse were measured using Digimatic caliper (Mitsutoyo Corporation) thereafter on Day 4, 7, 11, 14, 18 and 21.
as §2

| Structure (SMILES) | RTV (relative tumor volume) Day 3 [1] | RTV (relative tumor volume) Day 5 [1] | RTV (relative tumor volume) Day 8 [1] | RTV (relative tumor volume) Day 10 [1] | RTV (relative tumor volume) Day 3 [2] | RTV (relative tumor volume) Day 7 [2] | RTV (relative tumor volume) Day 10 [2] | RTV (relative tumor volume) Day 14 [2] | RTV (relative tumor volume) Day 17 [2] | RTV (relative tumor volume) Day 3 [3] | RTV (relative tumor volume) Day 7 [3] | RTV (relative tumor volume) Day 10 [3] | RTV (relative tumor volume) Day 14 [3] | RTV (relative tumor volume) Day 17 [3] | RTV (relative tumor volume) Day 4 [4] | RTV (relative tumor volume) Day 7 [4] | RTV (relative tumor volume) Day 11 [4] | RTV (relative tumor volume) Day 14 [4] | RTV (relative tumor volume) Day 18 [4] | RTV (relative tumor volume) Day 21 [4] |
| --- | --- | --- | --- | --- | --- | --- | --- | --- | --- | --- | --- | --- | --- | --- | --- | --- | --- | --- | --- | --- |
| COc1cc2nccc(Oc3ccc(NC(=O)NC4CC4)c(Cl)c3)c2cc1C(N)=O [Compound A, 4-(3-chloro-4-(cyclopropylaminocarbonyl)aminophenoxy)-7-methoxy-6-quinolinecarboxamide mesylate] | 1.92 ± 0.17 | 4.77 ± 0.85 | 9.51 ± 2.44 | 12.37 ± 3.53 | 1.67 ± 0.16 | 2.89 ± 0.74 | 3.77 ± 1.26 | 4.83 ± 1.75 | 5.81 ± 2.17 | 1.71 ± 0.19 | 2.88 ± 0.35 | 3.74 ± 0.53 | 5.06 ± 0.49 | 5.92 ± 0.50 | 1.53 ± 0.12 | 2.10 ± 0.18 | 2.65 ± 0.37 | 2.65 ± 0.49 | 2.80 ± 0.47 | 3.18 ± 0.57 |
| CN1CCN(C2CCN(C(=O)Nc3cc(Oc4ccc(NC(=O)C5(C(=O)Nc6ccc(F)cc6)CC5)c(F)c4)ccn3)CC2)CC1 [Compound B, N-(2-fluoro-4-{[2-({[4-(4-methylpiperazin-1-yl)piperidin-1-yl]carbonyl}amino)pyridin-4-yl]oxy}phenyl)-N′-(4-fluorophenyl)cyclopropane-1,1-dicarboxamide tartrate] | 2.23 ± 0.42 | 7.01 ± 1.54 | 15.70 ± 2.27 | 21.29 ± 2.76 | 1.71 ± 0.26 | 3.33 ± 1.06 | 4.72 ± 1.55 | 6.53 ± 2.19 | 9.05 ± 3.71 | 1.76 ± 0.22 | 2.93 ± 0.57 | 4.06 ± 0.85 | 5.23 ± 0.20 | 5.80 ± 1.35 | 1.12 ± 0.08 | 1.24 ± 0.15 | 1.75 ± 0.17 | 1.85 ± 0.16 | 3.09 ± 0.48 | 4.02 ± 1.05 |

Reference: patent US9012458B2, “Antitumor agent using compounds having kinase inhibitory effect in combination” (Eisai R&D Management Co., Ltd., priority 2010, dated 2015)
